For 20 compounds, IC50 and Emax results are on record in patent publication US12410179B2, “Modulators of TNF alpha activity and uses thereof” (RayThera, Inc., priority 2023, dated 2025).

Like-named read-outs stand apart in the source and are kept apart here.

The assay deals with TNFα (Homo sapiens, UniProt P01375). Description: HEK-Blue hTNFα reporter assay. It is filed as cell-based. More on the design: purchased R&D biosystem (R&D Systems) 210-TA-020/CF. The settings on record: HEK-Blue hTNFα reporter cells; for Emax: read-out: TNFα reporter, Emax. The source says:
Stimulation of HEK293 cells by TNFα leads to activation of the NF-κB pathway. The potency of compounds was examined in HEK-Blue™ hTNFα reporter cells (Invivogen, Cat #hkb-tnfdmyd). HEK-Blue™ TNFα cells were generated by stable transfection of HEK293 cell line with a SEAP reporter gene under the control of the […] minimal promoter fused to NF-κB binding sites. Stimulation of HEK-Blue™ TNFα cells with TNFα triggers the activation of the NF-κB-inducible promoter and the production of SEAP. Levels of SEAP in the supernatant can be easily determined using QUANTI-Blue™ Solution (Invivogen, cat #rep-qbs) by reading the OD at 620-655 nm.
HEK-Blue™ TNFα cells were cultured in DMEM supplemented with 10% FBS, 100p/mL penicillin, 100 μg/mL streptomycin, 100 μg/mL normocin, 1 μg/mL puromycin, and 100 μg/mL zeocin. The culture was maintained in culture incubator with 5% CO2 at 37° C. When used for assay, the cells were gently rinsed twice with pre-warmed phosphate buffered saline (PBS) and detached in presence of PBS by tapping the flask or by using a cell scraper. The cells were spun to remove PBS and resuspended in fresh, pre-warmed test medium (DMEM supplemented with 10% FBS, 100p/mL penicillin, and 100 μg/mL streptomycin). A serial dilution of work solution of tested compound was made in DMSO with 1000× of final concentration, and 40 nL of compound DMSO solution was transferred into 384-well plates (Corning 3764) by Echo, and incubated with 10 μL of recombinant hTNFα (R&D biosystem, Cat #210-TA-020/CF) for 1 h at 37° C. The compound/hTNFα mixture well received 30 μL HEK-Blue™ TNFα cell suspension at 10000 cells/well, and then incubated at 37° C. with 5% CO2 for 24 h. The final concentration of hTNFα is […]. After incubation, 5 μL of induced cell supernatant was transferred to a new 384-well plate well (Coring 3764) to mix with 45 μL of QUANTI-Blue Solution. After 1 h incubation at 37° C., the plate was read using a spectrophotometer at 620 nm.
The percentage of inhibition was calculated by the following formula: % inhibition=(positive control−Sample)/(positive control−negative control)*100 • Positive control: OD620 reading of cells with hTNFα stimulation. • Negative control: OD620 reading of cells without hTNFα stimulation. • Sample: OD620 reading of cells with compound at specific concentration and hTNFα stimulation
The % inhibition was plotted against compound concentration in logarithmic scale and the IC50 was rendered using 4-parameter nonlinear regression (GraphPad Prism).

[1] abbreviates: SEAP readout, read-out: IC50 Range.

TNFα, sequence (P01375 77-233 limits assumed): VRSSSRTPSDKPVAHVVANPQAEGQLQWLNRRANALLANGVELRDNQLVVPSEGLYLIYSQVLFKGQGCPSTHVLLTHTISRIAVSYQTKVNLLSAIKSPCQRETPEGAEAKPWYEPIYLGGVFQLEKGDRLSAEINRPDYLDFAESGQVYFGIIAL

With `CN1C(=O)c2cccc(OC(F)F)c2[C@H]2C[C@@H]1c1nn3ccc(C4=CCC(C(C)(C)O)OC4)cc3c12` (stereo in doubt) [Example 318, (7R,14S)-1-(difluoromethoxy)-12-((R)-6-(2-hydroxypropan-2-yl)-5,6-dihydro-2H-pyran-3-yl)-6-methyl-6,7-dihydro-7,14-methanobenzo[c]pyrido[1′,2′:1,5]pyrazolo[4,3-f]azocin-5 (14H)-one], under setting [1], the IC50 was under 25 nM.
As to `CN1C(=O)c2cccc(OC(F)F)c2[C@H]2C[C@@H]1c1nn3ccc(C4=CCC(C(C)(C)O)OC4)cc3c12` (stereo in doubt) [Example 319, (7R,14S)-1-(difluoromethoxy)-12-((S)-6-(2-hydroxypropan-2-yl)-5,6-dihydro-2H-pyran-3-yl)-6-methyl-6,7-dihydro-7,14-methanobenzo[c]pyrido[1′,2′:1,5]pyrazolo[4,3-f]azocin-5 (14H)-one], under setting [1], the 50% inhibitory concentration (IC50) is under 25 nM.
For `CN1C(=O)c2cccc(OC(F)F)c2[C@H]2C[C@@H]1c1nc3ccc(-c4cnc([C@]5(N)C[C@@](C)(O)C5)c(F)c4)cc3n12` [Comp. Ex #2, reference compound], the Emax came out at 85%. The IC50 (read-out: TNFα reporter, IC50) turned out to be 4.7 nM.
In the case of `CN1C(=O)c2cccc(OC(F)F)c2[C@H]2C[C@@H]1c1nc3ccc(-c4cnc(C5(O)CCOCC5)nc4)cc3n12` [Comp. Ex #3, reference compound], the Emax stood at 70%. Also, the IC50 (read-out: TNFα reporter, IC50) was 8.2 nM.
`CN1C(=O)c2cccc(OC(F)F)c2[C@H]2C[C@@H]1c1nc3ccc(-c4cnc([C@]5(N)C[C@@](C)(C#N)C5)nc4)cc3n12` [Comp. Ex #5, reference compound]: the maximum response (Emax) turned out to be 83%. Moreover, the IC50 (read-out: TNFα reporter, IC50) was 16.1 nM.
For the compound `CN1C(=O)c2cccc(OC(F)F)c2[C@H]2C[C@@H]1c1nc3ccc(-c4cnc([C@]5(O)C[C@@](C)(O)C5)nc4)cc3n12` [Comp. Ex #6, reference compound], the Emax is 82%. In addition, the 50% inhibitory concentration (IC50) (read-out: TNFα reporter, IC50) came to 5.2 nM.
Taken in the same sequence, the figures for `CN1C(=O)c2cccc(OC(F)F)c2[C@H]2C[C@@H]1c1nc3ccc(-c4cnc([C@]5(N)C[C@@](C)(CO)C5)nc4)cc3n12` [Comp. Ex #7, reference compound] were 92% and 4.2 nM.
In the case of `CN1C(=O)c2cccc(OC(F)F)c2[C@H]2C[C@@H]1c1nc3ccc(-c4cnc([C@]5(N)C[C@@](C)(C#N)C5)c(F)c4)cc3n12` [Comp. Ex #8, reference compound], the Emax turned out to be 80%. In addition, where the note is “read-out: TNFα reporter, IC50”, the IC50 came out at 5.3 nM.
As to `CN1C(=O)c2cccc(OC(F)F)c2C2CC1c1nn3ccc(-c4cnc(C5(N)CCC5)nc4)nc3c12` (stereo not shown) [Example 1, 12-(2-(1-aminocyclobutyl)pyrimidin-5-yl)-1-(difluoromethoxy)-6-methyl-6,7-dihydro-7,14-methanobenzo[c]pyrimido[1′,2′:1,5]pyrazolo[4,3-f]azocin-5 (14H)-one], under setting [1], the IC50 lay within 25 to 100 nM.
Same read-out and setting: the figure for `CN1C(=O)c2cccc(OC(F)F)c2[C@@H]2C[C@H]1c1nn3ccc(-c4cnc(C5(N)CCC5)nc4)nc3c12` [Example 2, (7S,14R)-12-(2-(1-aminocyclobutyl)pyrimidin-5-yl)-1-(difluoromethoxy)-6-methyl-6,7-dihydro-7,14-methanobenzo[c]pyrimido[1′,2′:1,5]pyrazolo[4,3-f]azocin-5 (14H)-one] is 100 to 1000 nM; for `CN1C(=O)c2cccc(OC(F)F)c2[C@H]2C[C@@H]1c1nn3ccc(-c4cnc(C5(N)CCC5)nc4)nc3c12` [Example 3, (7R,14S)-12-(2-(1-aminocyclobutyl)pyrimidin-5-yl)-1-(difluoromethoxy)-6-methyl-6,7-dihydro-7,14-methanobenzo[c]pyrimido[1′,2′:1,5]pyrazolo[4,3-f]azocin-5 (14H)-one] it is under 25 nM; for `CN1C(=O)c2cccc(OC(F)F)c2[C@H]2C[C@@H]1c1nn3ccc(-c4cnc(C5(O)CC(C)(C#N)C5)nc4)nc3c12` (stereo partly drawn) [Example 4, (1R,3s)-3-(5-((7R,14S)-1-(difluoromethoxy)-6-methyl-5-oxo-5,6,7,14-tetrahydro-7,14-methanobenzo[c]pyrimido[1′,2′:1,5]pyrazolo[4,3-f]azocin-12-yl)pyrimidin-2-yl)-3-hydroxy-1-methylcyclobutane-1-carbonitrile] it is under 25 nM.
Turning to `CN1C(=O)c2cccc(OC(F)F)c2[C@H]2C[C@@H]1c1nn3ccc(-c4cnc([C@]5(C#N)C[C@@](C)(O)C5)nc4)nc3c12` [Example 5, (1r,3S)-1-(5-((7R,14S)-1-(difluoromethoxy)-6-methyl-5-oxo-5,6,7,14-tetrahydro-7,14-methanobenzo[c]pyrimido[1′,2′:1,5]pyrazolo[4,3-f]azocin-12-yl)pyrimidin-2-yl)-3-hydroxy-3-methylcyclobutane-1-carbonitrile], the IC50 under setting [1] is under 25 nM.
Turning to `CN1C(=O)c2cccc(OC(F)F)c2[C@H]2C[C@@H]1c1nn3ccc(-c4cnc(C5(N)CC5)nc4)nc3c12` [Example 6, (7R,14S)-12-(2-(1-aminocyclopropyl)pyrimidin-5-yl)-1-(difluoromethoxy)-6-methyl-6,7-dihydro-7,14-methanobenzo[c]pyrimido[1′,2′:1,5]pyrazolo[4,3-f]azocin-5 (14H)-one], under setting [1], the IC50 was under 25 nM.
Consider `CN1C(=O)c2cccc(OC(F)F)c2[C@H]2C[C@@H]1c1nn3ccc(-c4cnc([C@]5(N)C[C@@](C)(C#N)C5)nc4)nc3c12` [Example 7, (1R,3s)-3-amino-3-(5-((7R,14S)-1-(difluoromethoxy)-6-methyl-5-oxo-5,6,7,14-tetrahydro-7,14-methanobenzo[c]pyrimido[1′,2′:1,5]pyrazolo[4,3-f]azocin-12-yl)pyrimidin-2-yl)-1-methylcyclobutane-1-carbonitrile], for which the IC50 under setting [1] is under 25 nM.
For `CN1C(=O)c2cccc(OC(F)F)c2[C@H]2C[C@@H]1c1nn3ccc(C4=CCC(C(C)(C)O)CC4)nc3c12` (stereo partly drawn) [Example 8, (7R,14S)-1-(difluoromethoxy)-12-(4-(2-hydroxypropan-2-yl)cyclohex-1-en-1-yl)-6-methyl-6,7-dihydro-7,14-methanobenzo[c]pyrimido[1′,2′:1,5]pyrazolo[4,3-f]azocin-5 (14H)-one], the IC50 under setting [1] was 25 to 100 nM.
Regarding `CN1C(=O)c2cccc(OC(F)F)c2[C@H]2C[C@@H]1c1nn3ccc(-c4cnc([C@]5(N)C[C@@](C)(O)C5)nc4)nc3c12` [Example 9, (7R,14S)-12-(2-((1s,3R)-1-amino-3-hydroxy-3-methylcyclobutyl)pyrimidin-5-yl)-1-(difluoromethoxy)-6-methyl-6,7-dihydro-7,14-methanobenzo[c]pyrimido[1′,2′:1,5]pyrazolo[4,3-f]azocin-5 (14H)-one], under setting [1], the IC50 is under 25 nM.
With `CN1C(=O)c2cccc(OC(F)F)c2[C@H]2C[C@@H]1c1nn3ccc(-c4cnc([C@]5(N)C[C@@](C)(CO)C5)nc4)nc3c12` [Example 10, (7R,14S)-12-(2-((1s,3R)-1-amino-3-(hydroxymethyl)-3-methylcyclobutyl)pyrimidin-5-yl)-1-(difluoromethoxy)-6-methyl-6,7-dihydro-7,14-methanobenzo[c]pyrimido[1′,2′:1,5]pyrazolo[4,3-f]azocin-5 (14H)-one], the Emax is 93%. Also, the IC50 under setting [1] was under 25 nM. The IC50 (read-out: TNFα reporter, IC50) amounted to 12.7 nM.
For `CN1C(=O)c2cccc(OC(F)F)c2[C@H]2C[C@@H]1c1nn3ccc(-c4cnc(C(C)(C)O)nc4)nc3c12` [Example 11, (7R,14S)-1-(difluoromethoxy)-12-(2-(2-hydroxypropan-2-yl)pyrimidin-5-yl)-6-methyl-6,7-dihydro-7,14-methanobenzo[c]pyrimido[1′,2′:1,5]pyrazolo[4,3-f]azocin-5 (14H)-one], the IC50 under setting [1] fell in the range of 25 to 100 nM.
On the same count and under the same terms, the result for `CN1C(=O)c2cccc(OC(F)F)c2[C@H]2C[C@@H]1c1nn3ccc(-c4cnc(C5(O)CCOC5)nc4)nc3c12` (stereo partly drawn) [Example 12, (7R,14S)-1-(difluoromethoxy)-12-(2-(3-hydroxytetrahydrofuran-3-yl)pyrimidin-5-yl)-6-methyl-6,7-dihydro-7,14-methanobenzo[c]pyrimido[1′,2′:1,5]pyrazolo[4,3-f]azocin-5 (14H)-one] reads 25 to 100 nM.
